ChEMBL document CHEMBL3507680, “University of Dundee, Gates Library screen for HepG2 cell viability”

Experiment: Human HepG2 cell viability assay in 384 well format
Type: toxicity, cell-based
Set-up: dose 125 nL, time 70.5 hour; concentration not given beside the values
Conditions: HepG2 cells, read-out: Inhibition

Row | Structure (SMILES) | cytotoxicity at 70.5 h [%]
1 | CCN1CCC(N2C[C@@H](C(=O)O)[C@H](c3cccc(OC)c3)C2)CC1 | -0.816
2 | O=C(c1cnc(Nc2ccccc2)nc1)N1CCS(=O)(=O)CC1 | -8.85
3 | COC1(CNC(=O)NCc2ccccc2)CCSC1 (configuration not stated) | -9.9
4 | CN(C)CCO[C@H]1C[C@@H](O)C12CCN(c1ncccc1Cl)CC2 | -5.24
5 | CCOCCN1CCN(Cc2cccc(C(=O)N(C)C)c2)CC1CC (configuration not stated) | -6.73
6 | Cc1nn(C)c(Cl)c1C1CCCN1C(=O)c1ccoc1C (configuration not stated) | -4.13
7 | CC(=O)NCC(=O)N1CCN(CC2CC2)c2ncccc2C1 | -9.1
8 | CC(=O)N1CCOC(CCc2cc(-c3c(C)noc3C)ncn2)C1 (configuration not stated) | -0.21
9 | COc1ccc(-c2cnc(CN3CCn4c(C)nnc4C3)o2)cc1 | 22.7
10 | Fc1ccc(OCC2CCCO2)c(NCc2cn3cccnc3n2)c1 (configuration not stated) | 8.09
11 | CCOC(C)c1noc(CN2CCN(Cc3ccno3)CC2)n1 (configuration not stated) | -3.49
12 | Cc1cc(C)n(CC2CCCN2C(=O)c2ccc3nncn3c2)n1 (configuration not stated) | -4.03
13 | Cc1cnc2c(c1NCc1cccs1)c(=O)n(C)c(=O)n2C | -16.9
14 | CC(C#N)CNC(=O)Nc1ccc(Br)cc1 (configuration not stated) | 2.54
15 | CCN(Cc1noc(CC(C)C)n1)Cc1ncccc1C(=O)O | -3.41
16 | CCc1noc(CNc2cc3c(cc2Cl)OCCO3)n1 | 15.1
17 | O=C1CCSCC(C(=O)NCc2nc(-c3ccccc3)no2)N1 (configuration not stated) | -11.9
18 | CC(=O)NCCNC(=O)CN1CCCC1Cn1nc(C)nc1C (configuration not stated) | -16.9
19 | OCCOc1cc(F)ccc1NCc1ccc(F)c(F)c1 | -2.79
20 | O=C(NCCOc1ccc(F)cc1)C1CCCN(C(=O)C2CC2)C1 (configuration not stated) | -17.7
21 | Cc1cnn(CC2CN(Cc3nc(-c4cccnc4)no3)CCO2)c1 (configuration not stated) | -0.171
22 | CC(=O)NCCCNC(=O)N(C)C(C)Cc1ccc(Cl)cc1 (configuration not stated) | -8.06
23 | CN(C)c1ccc(C(=O)N2CCN(c3cnccn3)CC2)cn1 | -17.1

Row | Structure (SMILES) | cytotoxicity at 70.5 h [%]
24 | COc1ccc2cccc(CC(=O)NCc3nccc(N)n3)c2c1 | -2.39
25 | CN(C)c1ccc(C(=O)N2CCCC2c2cnn(C)c2)cn1 (configuration not stated) | -2.8
26 | CC(CNC(=O)CCc1ccco1)N1CCc2sccc2C1 (configuration not stated) | 3.4
27 | Cc1nnc([C@@H]2CC[C@@H]3[C@@H](CCN3C3CCC3)O2)o1 | -4.45
28 | CCn1c(CN(C)Cc2csc(C)n2)nc2cc(F)ccc21 | -20.1
29 | c1ccc(Cc2nc(CNC3CCOC4(CCOCC4)C3)no2)cc1 (configuration not stated) | -13.7
30 | Cc1cccnc1CCNCC1(O)CCCN(CC2CCCCC2)C1=O (configuration not stated) | 35.9
31 | CCn1cnnc1CNC(=O)N1CCC(C)CC1 | 16.5
32 | CC(C)CN1CCN(Cc2nc3c(s2)CCCC3)[C@H]2CS(=O)(=O)C[C@H]21 | 10.7
33 | Cc1ccc(NC2CCN(C(=O)c3c(C)nn(C)c3Cl)CC2)nn1 | -2.32
34 | N[C@@H]1c2ccccc2C2(CCN(C(=O)c3ccccc3O)CC2)[C@H]1O | -6.11
35 | COc1cccc(OC2CN(C(=O)c3ccoc3C)C2)c1 | 10.7
36 | CCOC(=O)CSc1ccc(-c2nc(C)no2)cn1 | 1.96
37 | Cc1ccc(CN2CC[C@H]3C[C@H](C(=O)N(C)C)O[C@H]3C2)cc1 | -17.2
38 | c1cnc(N2CCC(c3n[nH]c4ncccc34)C2)nc1 (configuration not stated) | -7.93
39 | Fc1ccc(NC2CCCN(Cc3ccncc3)C2)cc1 (configuration not stated) | 26.1
40 | c1cc(-c2noc(C3CCC3)n2)cc(N2CCCCC2)n1 | 16.5
41 | CNC(=O)[C@H]1CC[C@@H]2[C@@H](CCN2CCOCc2ccccc2)O1 | -12.3
42 | COc1c(CNCc2ccc(CN(C)C)cc2)c(C)nn1C | -4.98
43 | CN1N=C(C(=O)N2CCCC(CCc3ccccc3)C2)CCC1=O (configuration not stated) | -9.61
44 | COc1ccc([C@@H]2NC(=O)N[C@H]3OCCC[C@H]32)cc1 | -4.38
45 | Cc1nnc2ccc(N3CCN(CCc4ccccn4)CC3)nn12 | -0.337
46 | COCC(C)(CCO)NC(=O)Nc1cccc(Br)c1C (configuration not stated) | 7.98

Row | Structure (SMILES) | cytotoxicity at 70.5 h [%]
47 | Cc1cn2c(CN(C)C(=O)c3ncoc3C)c(C)nc2s1 | -0.848
48 | Cc1ccc2c(c1)c(CNC(=O)C1CCN(C(=O)C3CC3)CC1)nn2C | -3.75
49 | Cc1nc([C@H]2C[C@@H]3CCN(C(=O)c4ccnnc4)C[C@H]3O2)sc1C | -0.727
50 | Cc1nc(C2CCCN2C(=O)c2csc3c2CCCC3)no1 (configuration not stated) | -1.72
51 | CCN(Cc1ccc(N(C)C)cc1)S(=O)(=O)c1cc(Br)ccc1OC | -1.59
52 | CCc1n[nH]c(C2CN(C(=O)c3cnn(CC)c3)CCO2)n1 (configuration not stated) | 19.6
53 | Cc1ncsc1C(=O)N1CCCCC1c1cc2nc(C)c(C)c(O)n2n1 (configuration not stated) | -4.23
54 | CCn1nc(C)c(CCN2CC3(CCOC3)CCC2=O)c1C (configuration not stated) | 25.5
55 | CCn1nc(C)c2nc(C(C)C)nc(NCCCn3ccnc3)c21 | -17.9
56 | NC(=O)COc1cccc(C(=O)Nc2cnc3n2CCCC3)c1 | -5.66
57 | CN(Cc1noc(C2CC2)n1)C1CCN(Cc2ccc(F)c(F)c2)C1 (configuration not stated) | -8.17
58 | COc1ccccc1CC(=O)N(CCN1CCOCC1)Cc1ccco1 | -1.43
59 | O=C(CC1CC1)N1CCc2ncc(Cn3cncn3)n2CC1 | -14.1
60 | CN1CCCN(C(=O)NCc2cccnc2-n2cccn2)CC1 | -0.342
61 | COc1ccc(-c2nc(CN3CCc4cnc(C)nc4C3)no2)cc1 | -6.23
62 | O=c1cc(-c2cccnc2)nc(-c2ccc(CN3CC[C@@H](O)C3)cc2)[nH]1 | 12.1
63 | CC(=O)c1c(C)nn(S(=O)(=O)c2ccc(C)c(C)c2)c1C | -0.468
64 | COc1cccc(S(=O)(=O)CCN2CCN(CC(F)F)CC2)c1 | 1.26
65 | Cc1ccc(CN2CCOC3(COCCN(S(C)(=O)=O)C3)C2)o1 (configuration not stated) | -5.62
66 | O=C(CCn1cc(Cl)cn1)N1C[C@@H]2CC[C@H](C1)N(Cc1ccccn1)C2 | -11.7
67 | Cc1ccc2c(c1)C(NC(=O)N(C)C)CC21CCN(C(C)C)CC1 (configuration not stated) | -5.2
68 | CC(C)c1nc(C(=O)N2CCOCC2CC(=O)c2ccco2)cs1 (configuration not stated) | -2.9
69 | Cn1cc(Br)c(=O)c(NS(=O)(=O)c2ccc(F)cc2)c1 | 16.4

Row | Structure (SMILES) | cytotoxicity at 70.5 h [%]
70 | C[C@H]1C[C@H]2CN(C(=O)C3=CCCC3)CC[C@H]2O1 | -9.81
71 | COCC(=O)N(Cc1cccc(C)c1)Cc1ccccc1OC | -4.3
72 | Nc1ncccc1C(=O)NCc1cccc(Cl)c1 | -8.22
73 | Cc1ccc2oc([C@H]3CCN(Cc4ccccc4)C3)nc2c1 | 5.17
74 | Cc1nc(C2CCCN2CCOCC2CC2)no1 (configuration not stated) | -11.1
75 | CC(C)N1CCC2(CC1)C(=O)N(c1cccnc1)c1c(F)cccc12 | -2.98
76 | Cc1nc(N(C)C)nc2c1COCC21CCN(CC2CC2)C1 (configuration not stated) | 5.56
77 | CC1CCN(S(=O)(=O)N2CCCN(CC3CCCO3)CC2)CC1 (configuration not stated) | 13.3
78 | Cc1ccc(CN2CCCC23CCN(S(=O)(=O)c2ccccc2)C3)o1 (configuration not stated) | -7.71
79 | Cc1ccnn1CCNC(=O)c1cnc(N(C)C)nc1 | -4.92
80 | COCCN1CC(C(=O)N(C)Cc2cc(-c3cccnc3)no2)CC1=O (configuration not stated) | -11.9
81 | COCCCC(=O)Nc1cccnc1N1CCCCC1 | -10.4
82 | c1ccc(-c2nc3c(c(NCCc4c[nH]cn4)n2)CCNC3)cc1 | -12.1
83 | OC[C@H]1CN(Cc2c(Cl)cncc2Cl)C[C@H]1CN1CCCCCC1 | -1.47
84 | NC(=O)c1cc2c(nc1CC1CCCCO1)CCC2 (configuration not stated) | -2.08
85 | CCc1cc(N2CCC(n3cc(C(=O)NCC(C)C)nn3)CC2)ncn1 | 0.723
86 | CC(C)C[C@H](NC(=O)CNC(=O)OC(C)(C)C)C(=O)OC(C)(C)C | -0.919
87 | CNC(=O)[C@@H]1C[C@H](N)CN1S(=O)(=O)c1cc(C)c(Cl)cc1C | 1.05
88 | Cc1nn(CCC(=O)NC(C(=O)O)c2c(C)n[nH]c2C)c(C)c1C (configuration not stated) | -3.08
89 | COCCN1CCC(CNC(=O)C2(c3cccc(C)c3)CC2)CC1 | -4.42
90 | Cc1cc(NC(=O)NCC2CCN(C(C)C)C2)no1 (configuration not stated) | -5.36
91 | Cc1ccc(S(=O)(=O)Nc2ccc(=O)n(C)c2)cc1 | -13.1
92 | Cc1cc(C)nc(NC2CCN(CCOC(C)C)CC2)n1 | 1.5

Row | Structure (SMILES) | cytotoxicity at 70.5 h [%]
93 | Cc1noc([C@@H]2C[C@H]3OCC[C@H]3N(S(=O)(=O)c3ccccc3)C2)n1 | -1.71
94 | CSc1ccc(NC(=O)COCc2ccccc2)nc1 | 15
95 | C[C@H]1C(=O)NC[C@H]2CN(CCc3ccccc3)C[C@H]21 | -9.77
96 | Cc1ccc2c(ccn2CCC(=O)NC[C@@H]2CCCN3CCCC[C@H]23)c1 | 1.22
97 | CNC(=O)C1CC2(CCN(C(=O)c3csnn3)CC2)c2ccccc21 (configuration not stated) | 0.474
98 | N#Cc1ccc(N2CCC3(CCC(=O)N3CCN3CCCC3)CC2)nc1 | -9.44
99 | COCC1CCN(C(C(=O)O)c2c(F)cccc2OC(C)C)CC1 (configuration not stated) | -6.42
100 | CC1CN(C)c2ccccc2N(C(=O)c2ccc(=O)n(C)c2)C1 (configuration not stated) | 6.89
101 | CC(C)C[C@H](NC(=O)NC1CCS(=O)(=O)C1)C(=O)NCc1cccnc1 (some centres not stated) | -16
102 | O=C(CCc1ccsc1)NCC1CCN(Cc2cccs2)CC1 | -4.26
103 | CCOc1cc(N2CCN(C(=O)c3ccc(OC)cc3)CC2)nc(C)n1 | 5.38
104 | O=C1CCCN1Cc1ccc(C(=O)N2CCCC2c2cccs2)cc1 (configuration not stated) | -6.75
105 | Cc1cc(C)cc(C(=O)NCCS(=O)(=O)N2CCSCC2)c1 | 20.5
106 | CN(C)C[C@H]1OC[C@@H]2CN(C(=O)NCc3cccnc3)CC[C@@H]21 | 0.184
107 | Cc1cnc(CN(C)C2CCN(Cc3nc4ccccc4n3C)C2)o1 (configuration not stated) | 25.2
108 | COC(=O)c1ccc(NC(C)c2ccc3c(c2)CCC(=O)N3)nn1 (configuration not stated) | -8.66
109 | Cc1cc(NC(=O)CNC(C)(C)c2nc(C)c(C)s2)no1 | -7.18
110 | COc1ccccc1-n1cc(C(=O)NCCCn2ccnn2)cn1 | -8.35
111 | Cc1nn2cnnc2c(C)c1CCC(=O)Nc1nc2c(s1)CCC2 | -13
112 | O=C(NCCN1CCNCC1)c1nc2ccccc2c(=O)[nH]1 | -2.57
